Data as given in ChEMBL document CHEMBL5523771, “Hydrazides as Inhibitors of Histone Deacetylases” (J Med Chem, 2024).
Values belong to the compound of their own block, whether it stands above or below them.

Tests used:
[1] = Inhibition of human HDAC1 (379 to 382 residues) using RHKKAc-AMC as substrate incubated for 60 mins by […] assay
Histone deacetylase 1 [2] = biological target: T1, Histone deacetylase 1 (Homo sapiens, UniProt Q13547); assay: Inhibition of human HDAC1
Histone deacetylase 3 [3] = biological target: T2, Histone deacetylase 3 (Homo sapiens, UniProt O15379); assay: Inhibition of human HDAC3
Histone deacetylase 2 [4] = biological target: T3, Histone deacetylase 2 (Homo sapiens, UniProt Q92769); assay: Inhibition of human HDAC2
Histone deacetylase 11 = biological target: T4, Histone deacetylase 11 (Homo sapiens, UniProt Q96DB2); assay: Inhibition of human recombinant full length FLAG-tagged HDAC11 transfected in HEK293T cells using Ac-ETDKrnyr-AMC as substrate incubated for 30 mins by fluorescence based analysis
T4 sequence (Q96DB2 whole entry): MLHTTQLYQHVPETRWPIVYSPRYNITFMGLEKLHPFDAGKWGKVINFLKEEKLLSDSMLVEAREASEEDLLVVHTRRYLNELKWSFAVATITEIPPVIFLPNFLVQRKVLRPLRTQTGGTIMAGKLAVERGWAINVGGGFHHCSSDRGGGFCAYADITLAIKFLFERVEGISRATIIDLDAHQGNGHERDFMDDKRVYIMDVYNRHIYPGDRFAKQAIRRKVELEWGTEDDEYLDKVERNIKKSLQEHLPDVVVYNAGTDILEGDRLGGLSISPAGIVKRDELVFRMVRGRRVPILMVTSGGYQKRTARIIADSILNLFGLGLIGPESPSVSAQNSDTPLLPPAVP

[5] = biological target: T5, Protein deacetylase HDAC6 (Homo sapiens, UniProt Q9UBN7); assay: Inhibition of HDAC6 (unknown origin)
T5 sequence (Q9UBN7 whole entry): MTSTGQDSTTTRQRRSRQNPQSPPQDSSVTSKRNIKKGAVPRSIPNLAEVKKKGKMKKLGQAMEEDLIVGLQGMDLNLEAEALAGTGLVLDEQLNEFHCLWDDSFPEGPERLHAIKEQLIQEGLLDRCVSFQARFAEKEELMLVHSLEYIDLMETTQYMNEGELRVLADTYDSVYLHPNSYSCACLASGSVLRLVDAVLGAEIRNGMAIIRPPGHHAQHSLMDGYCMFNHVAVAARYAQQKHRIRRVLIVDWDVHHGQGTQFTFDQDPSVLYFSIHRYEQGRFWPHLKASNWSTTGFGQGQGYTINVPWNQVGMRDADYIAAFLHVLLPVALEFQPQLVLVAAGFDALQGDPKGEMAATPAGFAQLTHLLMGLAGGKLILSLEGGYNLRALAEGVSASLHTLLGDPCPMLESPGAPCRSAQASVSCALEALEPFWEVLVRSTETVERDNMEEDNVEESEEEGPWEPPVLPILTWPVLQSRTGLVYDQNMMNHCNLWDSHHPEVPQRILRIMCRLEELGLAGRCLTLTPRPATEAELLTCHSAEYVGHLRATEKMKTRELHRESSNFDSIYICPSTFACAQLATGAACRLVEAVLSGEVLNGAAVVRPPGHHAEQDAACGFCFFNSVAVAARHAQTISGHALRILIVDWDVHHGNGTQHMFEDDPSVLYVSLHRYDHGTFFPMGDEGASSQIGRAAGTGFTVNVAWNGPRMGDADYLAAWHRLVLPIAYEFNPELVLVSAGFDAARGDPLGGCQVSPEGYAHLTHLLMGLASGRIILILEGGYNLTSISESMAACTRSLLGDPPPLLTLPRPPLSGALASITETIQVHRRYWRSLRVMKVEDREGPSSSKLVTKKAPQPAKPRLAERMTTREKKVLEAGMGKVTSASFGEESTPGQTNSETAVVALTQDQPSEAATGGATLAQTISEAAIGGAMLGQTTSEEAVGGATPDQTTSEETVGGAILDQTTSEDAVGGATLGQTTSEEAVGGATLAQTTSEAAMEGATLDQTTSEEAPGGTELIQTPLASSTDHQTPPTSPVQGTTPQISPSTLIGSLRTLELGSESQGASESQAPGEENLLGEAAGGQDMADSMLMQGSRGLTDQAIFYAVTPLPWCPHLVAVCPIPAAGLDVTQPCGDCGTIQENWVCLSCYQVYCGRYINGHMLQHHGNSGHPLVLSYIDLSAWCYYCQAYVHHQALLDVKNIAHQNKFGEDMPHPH

Histone deacetylase 1 [6] = biological target: T1, Histone deacetylase 1; assay: Inhibition of HDAC1 (unknown origin)
Histone deacetylase 2 [7] = biological target: T3, Histone deacetylase 2; assay: Inhibition of HDAC2 (unknown origin)
Histone deacetylase 8 = biological target: T6, Histone deacetylase 8 (Homo sapiens, UniProt Q9BY41); assay: Inhibition of HDAC8 (unknown origin)
T6 sequence (Q9BY41 whole entry): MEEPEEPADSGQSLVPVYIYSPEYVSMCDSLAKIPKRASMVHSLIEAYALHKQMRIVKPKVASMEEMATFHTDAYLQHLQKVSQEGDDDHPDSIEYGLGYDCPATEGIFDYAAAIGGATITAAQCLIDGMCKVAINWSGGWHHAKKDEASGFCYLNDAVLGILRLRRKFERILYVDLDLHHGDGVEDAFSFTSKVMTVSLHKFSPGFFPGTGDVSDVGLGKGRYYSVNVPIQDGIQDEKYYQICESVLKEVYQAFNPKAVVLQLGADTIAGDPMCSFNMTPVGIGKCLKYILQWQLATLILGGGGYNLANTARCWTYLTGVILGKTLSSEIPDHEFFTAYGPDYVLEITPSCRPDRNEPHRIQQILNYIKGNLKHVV

Histone deacetylase 3 [8] = biological target: T2, Histone deacetylase 3; assay: Inhibition of HDAC3 (unknown origin)
Histone deacetylase 4 = Histone deacetylase 4 (Homo sapiens, UniProt P56524); assay: Inhibition of HDAC4 (unknown origin)
Sequence of Histone deacetylase 4 (P56524 whole entry): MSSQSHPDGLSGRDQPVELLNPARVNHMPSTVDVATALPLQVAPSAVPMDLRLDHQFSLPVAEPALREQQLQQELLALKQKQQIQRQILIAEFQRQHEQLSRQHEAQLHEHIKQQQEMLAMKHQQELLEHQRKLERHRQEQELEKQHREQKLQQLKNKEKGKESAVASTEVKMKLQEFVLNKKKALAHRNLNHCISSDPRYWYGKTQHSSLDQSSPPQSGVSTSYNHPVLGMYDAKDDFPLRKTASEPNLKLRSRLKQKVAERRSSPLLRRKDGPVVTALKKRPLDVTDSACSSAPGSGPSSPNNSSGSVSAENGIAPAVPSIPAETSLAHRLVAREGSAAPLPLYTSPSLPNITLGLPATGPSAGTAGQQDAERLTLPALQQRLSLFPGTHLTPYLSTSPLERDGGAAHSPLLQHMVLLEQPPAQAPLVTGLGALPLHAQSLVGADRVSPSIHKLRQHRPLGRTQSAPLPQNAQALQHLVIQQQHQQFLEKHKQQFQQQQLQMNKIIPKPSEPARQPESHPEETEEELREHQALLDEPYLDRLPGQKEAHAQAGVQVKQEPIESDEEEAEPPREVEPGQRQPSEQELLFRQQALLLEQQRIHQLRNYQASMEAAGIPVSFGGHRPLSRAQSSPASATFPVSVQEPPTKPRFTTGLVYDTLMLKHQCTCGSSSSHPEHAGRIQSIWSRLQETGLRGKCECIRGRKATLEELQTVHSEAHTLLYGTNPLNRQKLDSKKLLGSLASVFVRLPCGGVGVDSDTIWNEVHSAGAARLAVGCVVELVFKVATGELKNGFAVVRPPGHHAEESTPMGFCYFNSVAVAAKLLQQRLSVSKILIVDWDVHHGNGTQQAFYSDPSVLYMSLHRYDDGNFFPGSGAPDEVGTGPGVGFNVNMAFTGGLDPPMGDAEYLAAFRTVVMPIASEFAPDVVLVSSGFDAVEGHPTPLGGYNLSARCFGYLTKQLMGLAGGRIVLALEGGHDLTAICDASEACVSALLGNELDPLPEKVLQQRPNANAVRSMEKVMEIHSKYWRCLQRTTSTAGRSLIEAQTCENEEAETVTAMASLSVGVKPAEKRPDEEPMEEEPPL

T1 sequence (Q13547 whole entry): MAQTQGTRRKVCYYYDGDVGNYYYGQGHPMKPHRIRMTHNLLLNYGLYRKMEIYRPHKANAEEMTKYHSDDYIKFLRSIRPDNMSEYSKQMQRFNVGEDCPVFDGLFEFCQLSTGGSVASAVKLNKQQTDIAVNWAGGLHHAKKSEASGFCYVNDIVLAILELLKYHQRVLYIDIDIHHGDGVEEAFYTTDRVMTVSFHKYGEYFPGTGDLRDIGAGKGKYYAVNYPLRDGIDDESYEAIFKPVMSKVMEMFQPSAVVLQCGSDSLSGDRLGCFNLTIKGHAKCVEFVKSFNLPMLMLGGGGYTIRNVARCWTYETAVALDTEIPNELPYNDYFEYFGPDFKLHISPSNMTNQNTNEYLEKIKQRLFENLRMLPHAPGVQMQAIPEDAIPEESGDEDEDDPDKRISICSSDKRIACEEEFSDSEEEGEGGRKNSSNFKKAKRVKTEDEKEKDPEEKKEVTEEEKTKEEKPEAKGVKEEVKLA
T3 sequence (Q92769 whole entry): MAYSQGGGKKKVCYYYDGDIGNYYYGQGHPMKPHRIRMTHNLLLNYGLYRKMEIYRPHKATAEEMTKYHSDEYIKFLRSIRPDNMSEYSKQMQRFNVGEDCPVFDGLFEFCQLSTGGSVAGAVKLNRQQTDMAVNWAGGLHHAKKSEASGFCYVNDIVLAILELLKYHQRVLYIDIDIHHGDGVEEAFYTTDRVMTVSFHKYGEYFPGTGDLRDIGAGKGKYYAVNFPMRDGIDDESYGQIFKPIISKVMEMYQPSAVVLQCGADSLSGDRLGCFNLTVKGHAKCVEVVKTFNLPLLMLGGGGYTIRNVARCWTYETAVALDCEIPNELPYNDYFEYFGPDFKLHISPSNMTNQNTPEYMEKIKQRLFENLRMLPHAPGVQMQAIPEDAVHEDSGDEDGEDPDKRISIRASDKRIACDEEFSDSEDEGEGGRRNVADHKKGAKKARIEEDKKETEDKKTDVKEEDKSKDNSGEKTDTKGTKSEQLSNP
T2 sequence (O15379 whole entry): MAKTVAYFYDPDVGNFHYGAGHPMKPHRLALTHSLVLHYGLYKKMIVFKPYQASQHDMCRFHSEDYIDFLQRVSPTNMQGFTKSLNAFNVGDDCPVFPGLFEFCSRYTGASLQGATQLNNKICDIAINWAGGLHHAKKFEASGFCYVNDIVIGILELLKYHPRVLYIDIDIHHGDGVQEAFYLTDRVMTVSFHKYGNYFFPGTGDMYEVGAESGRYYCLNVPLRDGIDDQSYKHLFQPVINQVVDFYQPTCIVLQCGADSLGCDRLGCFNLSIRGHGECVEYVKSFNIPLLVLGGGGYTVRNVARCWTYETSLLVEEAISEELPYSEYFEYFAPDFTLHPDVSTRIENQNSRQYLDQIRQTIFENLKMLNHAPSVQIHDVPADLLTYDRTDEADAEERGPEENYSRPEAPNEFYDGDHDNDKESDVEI

SMILES: CCCCNNC(=O)c1ccc(Br)cc1
IC50 [1]: 0.133 µM

SMILES: CCCCCCCCCCCCCCCCNNC(=O)c1ccc(N(C)C)cc1
IC50 (Histone deacetylase 11): 0.91 µM

SMILES: CCCNNC(=O)c1ccc(Nc2nccc(N(C)c3ccc4c(C)n(C)cc4c3)n2)cc1
IC50 [5]: 8.96 µM
IC50 (Histone deacetylase 1 [6]): 0.00042 µM

Now from value to compound:

IC50 (Histone deacetylase 1 [2]): 0.828 µM
IC50 (Histone deacetylase 3 [3]): 0.379 µM
IC50 (Histone deacetylase 2 [4]): 0.53 µM
SMILES: CCCNNC(=O)CCCCCCC(=O)Nc1ccccc1

IC50 (Histone deacetylase 2 [7]): 2.02 µM
IC50 (Histone deacetylase 8): 1.54 µM
IC50 (Histone deacetylase 3 [8]): 1.49 µM
IC50 (Histone deacetylase 4): 3.18 µM
IC50 (Histone deacetylase 1 [6]): 0.39 µM
SMILES: CCCC(CCC)C(=O)N[C@@H](Cc1ccccc1)C(=O)NNc1ccccc1

IC50 (Histone deacetylase 4): > 100 µM
SMILES: CCCC(CCC)C(=O)O [VALPROIC ACID]
